From US9926318B2, “Tetracyclic autotaxin inhibitors” (PharmAkea, Inc., priority 2013, dated 2018)
pIC50: −log10 of the molar value.

Experiments:
[1] = biological target: human autotaxin (ATX) (Homo sapiens (Human), UniProt Q13822); test: Human autotaxin assay (choline release from LPC, Hep3B conditioned media); format: biochemical; details: concentrated conditioned media from Hep3B cells, LPC substrate
Experimental: ATX activity is assayed in concentrated conditioned media from Hep3B human hepatocellular carcinoma cells by measuring the amount of choline released from the substrate, lysophosphatidylcholine (LPC) as it is cleaved to LPA. Conditioned media is collected from confluent Hep3B cells and concentrated 20-fold using Centriprep-30 filter devices (Millipore). […] 100 μl of a color mix containing 4.5 mM 4-aminoantipyrine, 2.7 mM N-ethyl-N-(2-hydroxy-3-sulfopropyl)-m-toluidine, 21 units/ml horseradish peroxidase and 3 units/ml choline oxidase in 50 mM Tris, pH 8, 4.5 mM MgCl2 is added and the incubation continued for 15 minutes at room temperature before reading the absorbance at 555 nm.

[2] = rat male reproductive tissue toxicity study; format: in vivo; details: for decreases in the testes weight (as a percentage of body weight): dosed at 300 mpk PO for 5 days; for decreases in testes weight: rat male reproductive tissue toxicity study
Experimental: In some embodiments, male reproductive tissue toxicity can be assessed in suitable in vivo models. In some embodiments, male reproductive tissue toxicity is assessed by monitoring any decreases in the testes weight and/or epididymis weight.

pIC50 [1] | Compound | decreases in the testes weight (as a percentage of body weight) [2] | decreases in testes weight [2]
> 6.30 | O=C1NC(=O)N2Cc3c(c4ccccc4n3Cc3ccc(F)cc3)CC12 (racemic) [Compound 1-15, 6-(4-fluorobenzyl)-5,6,11,11a-tetrahydro-1H-imidazo[1′,5′:1,6]pyrido[3,4-b]indole-1,3(2H)-dione] | no decreases in the testes weight | did not exhibit the same effects
> 6.30 | O=C(O)CCCN1C(=O)C2Cc3c(n(Cc4ccc(F)cc4)c4ccccc34)CN2C1=O (racemic) [Compound 1-1, 4-(6-(4-fluorobenzyl)-1,3-dioxo-11,11a-dihydro-1H-imidazo[1′,5′:1,6]pyrido[3,4-b]indol-2(3H,5H,6H)-yl)butanoic acid] | no decreases in the testes weight | did not exhibit the same effects
 | O=C(O)CCN1C(=O)[C@@H]2Cc3c(n(Cc4ccc(F)cc4)c4ccccc34)CN2C1=O [Compound 1-5, (S)-3-(6-(4-fluorobenzyl)-1,3-dioxo-5,6,11,11a-tetrahydro-1H-imidazo[1′,5′:1,6]pyrido[3,4-b]indol-2(3H)-yl)propanoic acid] |  | undesired decreases in testes weight
